As a reminder, the solubility is the concentration that dissolves in the medium under given conditions. High values mean a readily soluble substance, low ones a poorly soluble substance. Broadly, the IC50 is the midpoint of a concentration-inhibition curve. A word on the Ki: it is the equilibrium dissociation constant of an inhibitor or competing ligand from its target.

The nature of data set [1]: Test Example 8: Solubility test. Format: physicochemical. Particulars: fassgf or other biorelevant, kinetic from dmso stock; 1% DMSO addition, artificial intestinal juice pH 6.8, 16 hours at 25° C. As to the method: The solubility of a compound of the present invention was determined under 1% DMSO addition conditions. A 10 mmol/L solution of the compound was prepared with DMSO, and 6 μL of the solution of the compound of the present invention was added to 594 μL of an artificial intestinal juice (water and 118 mL of 0.2 mol/L NaOH reagent were added to 250 mL of 0.2 mol/L potassium dihydrogen phosphate reagent to reach 1000 mL) with a pH of 6.8. The mixture was left standing for 16 hours at 25° C., and the mixture was vacuum-filtered. The filtrate was two-fold diluted with methanol/water=1/1 (V/V), and the compound concentration in the filtrate was measured with HPLC or LC/MS/MS by the absolute calibration method.

Data set [2] concerns the target T1, human TRPV4 (hTRPV4/CHO cells) (Homo sapiens, UniProt Q9HBA0).
T1 construct: expressed in transfected cells; host or cells: CHO-K1
Nature of the data set: Test Example 1: TRPV4 inhibitory activity (IC50 value), 4α-PDD stimulation, Fluo4 calcium fluorescence (FLIPR TETRA). It counts as cell-based. The conditions noted are these: Test Example 1, 4α-PDD stimulation, read-out: Test 1 IC50.

Data set [3] deals with T2, CYP3A4 enzyme expressed in Escherichia coli (Homo sapiens, UniProt P08684).
T2 construct: host or cells: Escherichia coli
T2 sequence (P08684 whole entry): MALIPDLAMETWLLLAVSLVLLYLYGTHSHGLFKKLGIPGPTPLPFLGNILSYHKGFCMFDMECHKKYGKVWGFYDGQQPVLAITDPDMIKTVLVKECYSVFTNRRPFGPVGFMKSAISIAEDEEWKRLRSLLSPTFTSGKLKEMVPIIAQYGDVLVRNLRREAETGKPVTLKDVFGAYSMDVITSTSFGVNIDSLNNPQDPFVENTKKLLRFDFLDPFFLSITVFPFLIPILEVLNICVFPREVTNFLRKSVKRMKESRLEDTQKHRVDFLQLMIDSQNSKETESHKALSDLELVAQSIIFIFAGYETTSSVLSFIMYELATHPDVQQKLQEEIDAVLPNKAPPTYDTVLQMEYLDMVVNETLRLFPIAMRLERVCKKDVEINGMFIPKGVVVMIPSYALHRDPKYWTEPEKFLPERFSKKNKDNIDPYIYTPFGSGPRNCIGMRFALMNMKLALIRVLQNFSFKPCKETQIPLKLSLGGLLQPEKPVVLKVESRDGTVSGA
Nature of the data set: Test Example 5: CYP3A4 fluorescent MBI test. Particulars: substrate 7-BFC, pre-reaction 30 minutes, compound 0.625-20 μmol/L. It counts as in vitro ADME. As to the method:
CYP3A4 Fluorescent MBI Test
The CYP3A4 fluorescent MBI test is a test of investigating enhancement of CYP3A4 inhibition of a compound of the present invention by a metabolism reaction, and the test was performed using, as CYP3A4 enzyme expressed in Esherichia coli and employing, as an index, a reaction in which 7-benzyloxytrifluoromethylchmarin (7-BFC) is debenzylated by the CYP3A4 enzyme to produce a metabolite, 7-hydroxytrifluoromethylchmarin (HFC) emitting fluorescent light.
The reaction conditions were as follows: substrate, 5.6 μmol/L 7-BFC; pre-reaction time, […] or 30 minutes; reaction time, 15 minutes; reaction temperature, 25° C. […]
An enzyme in a K-Pi buffer (pH 7.4) and a solution of the compound of the present invention as a pre-reaction solution were added to a 96-well plate at the above composition of the pre-reaction. […] For the plate on which each index reaction had been performed, a fluorescent value of 7-HFC which is a metabolite was measured with a fluorescent plate reader. […]
Addition of only DMSO which is a solvent dissolving the compound of the present invention to a reaction system was adopted as a control (100%). Remaining activity (%) was calculated at each concentration of the compound of the present invention added as the solution, and IC50 was calculated by reverse-presumption by a logistic model using a concentration and an inhibition rate. […]

In data set [4] the target is T3, CYP1A2 (Homo sapiens, UniProt P05177).
T3 construct: enzyme, pooled human hepatic microsome 0.2 mg protein/mL; from tissue; host or cells: pooled human liver microsomes
T3 sequence (P05177 1-516): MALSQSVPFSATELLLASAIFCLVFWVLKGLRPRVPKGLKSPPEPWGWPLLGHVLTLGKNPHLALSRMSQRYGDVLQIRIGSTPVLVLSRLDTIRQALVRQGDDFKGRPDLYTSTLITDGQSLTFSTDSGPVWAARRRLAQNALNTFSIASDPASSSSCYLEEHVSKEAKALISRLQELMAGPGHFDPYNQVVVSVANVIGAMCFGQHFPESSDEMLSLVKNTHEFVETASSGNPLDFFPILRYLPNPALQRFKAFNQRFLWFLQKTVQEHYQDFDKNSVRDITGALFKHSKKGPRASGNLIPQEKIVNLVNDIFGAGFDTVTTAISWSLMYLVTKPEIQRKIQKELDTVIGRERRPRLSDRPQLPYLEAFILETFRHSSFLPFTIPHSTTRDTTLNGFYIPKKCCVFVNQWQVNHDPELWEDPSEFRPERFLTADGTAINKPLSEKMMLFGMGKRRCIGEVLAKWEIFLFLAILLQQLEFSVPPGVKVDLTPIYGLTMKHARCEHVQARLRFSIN
Nature of the data set: Test Example 6: CYP inhibition test, 7-ethoxyresorufin O-deethylation (CYP1A2). Format: in vitro ADME. The conditions noted are these: pooled human hepatic microsome, 0.5 μmol/L ethoxyresorufin. As to the method:
(§1) Test Example 6 CYP Inhibition Test […] The reaction conditions were as follows: substrate, 0.5 μmol/L ethoxyresorufin (CYP1A2), 100 μmol/L tolbutamide (CYP2C9), 50 μmol/L S-mephenytoin (CYP2C19), 5 μmol/L dextromethorphan (CYP2D6), 1 μmol/L terfenedine (CYP3A4); reaction time, 15 minutes; reaction temperature, 37° C.; enzyme, pooled human hepatic microsome 0.2 mg protein/mL; concentration of the compound of the present invention, 1, 5, 10, 20 μmol/L (four points). Each five kinds of substrates, human hepatic microsome, and the compound of the present invention in 50 mmol/L Hepes buffer as a reaction solution were added to a 96-well plate at the composition as described above. NADPH, as a cofactor was added to initiate metabolism reactions as markers and, after the incubation at 37° C. for 15 minutes, a methanol/acetonitrile=1/1 (v/v) solution was added to stop the reaction. After the centrifugation at 3000 rpm for 15 minutes, resorufin (CYP1A2 metabolite) in the supernatant was quantified by a fluorescent multilabel counter and toltributamide hydroxide (CYP2[…] metabolite), mephenytoin 4' hydroxide (CYP2C19 metabolite), […], and terfenadine alcohol (CYP3A4 metabolite) were quantified by LC/MS/MS. Addition of only DMSO being a solvent dissolving the compound of the present invention to a reaction system was adopted as a control (100%). Remaining activity (%) was calculated at each concentration of the compound of the present invention added as the solution and IC50 was calculated by reverse presumption by a logistic model using a concentration and an inhibition rate.

Data set [5] addresses T4, CYP2D6 (Homo sapiens, UniProt P10635).
T4 construct: enzyme, pooled human hepatic microsome 0.2 mg protein/mL; from tissue; host or cells: pooled human liver microsomes
Nature of the data set: Test Example 6: CYP inhibition test, dextromethorphan O-demethylation (CYP2D6). Particulars: pooled human hepatic microsome, 5 μmol/L dextromethorphan. Format: in vitro ADME. As to the method: as §1

In data set [6] the target is T5, CYP3A4 (Homo sapiens, UniProt P08684).
T5 construct: enzyme, pooled human hepatic microsome 0.2 mg protein/mL; from tissue; host or cells: pooled human liver microsomes
T5 sequence (P08684 whole entry): as the sequence (P08684 whole entry) above
Nature of the data set: Test Example 6: CYP inhibition test, terfenedine hydroxylation (CYP3A4). Format: in vitro ADME. Particulars: pooled human hepatic microsome, 1 μmol/L terfenedine. The protocol: as §1

The target of data set [7] is T6, CYP2C9 (Homo sapiens, UniProt P11712).
T6 construct: enzyme, pooled human hepatic microsome 0.2 mg protein/mL; from tissue; host or cells: pooled human liver microsomes
T6 sequence (P11712 whole entry): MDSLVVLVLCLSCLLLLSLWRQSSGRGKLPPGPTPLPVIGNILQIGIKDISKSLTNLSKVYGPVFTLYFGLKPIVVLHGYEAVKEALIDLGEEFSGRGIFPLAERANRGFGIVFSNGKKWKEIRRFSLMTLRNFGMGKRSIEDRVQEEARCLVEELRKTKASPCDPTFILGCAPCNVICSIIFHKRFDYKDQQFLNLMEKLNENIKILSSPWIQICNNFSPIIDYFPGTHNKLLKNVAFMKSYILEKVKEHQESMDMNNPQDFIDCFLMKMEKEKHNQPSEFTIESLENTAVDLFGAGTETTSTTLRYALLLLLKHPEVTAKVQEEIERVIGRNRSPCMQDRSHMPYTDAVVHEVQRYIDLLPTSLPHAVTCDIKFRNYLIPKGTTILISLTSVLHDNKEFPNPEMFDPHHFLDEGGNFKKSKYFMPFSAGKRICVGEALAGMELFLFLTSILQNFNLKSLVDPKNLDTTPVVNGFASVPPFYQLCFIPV
Nature of the data set: Test Example 6: CYP inhibition test, tolbutamide methyl-hydroxylation (CYP2C9). It counts as in vitro ADME. The conditions noted are these: pooled human hepatic microsome, 100 μmol/L tolbutamide. The protocol: as §1

The target in data set [8] is T7, CYP2C19 (Homo sapiens, UniProt P33261).
T7 construct: enzyme, pooled human hepatic microsome 0.2 mg protein/mL; from tissue; host or cells: pooled human liver microsomes
T7 sequence (P33261 whole entry): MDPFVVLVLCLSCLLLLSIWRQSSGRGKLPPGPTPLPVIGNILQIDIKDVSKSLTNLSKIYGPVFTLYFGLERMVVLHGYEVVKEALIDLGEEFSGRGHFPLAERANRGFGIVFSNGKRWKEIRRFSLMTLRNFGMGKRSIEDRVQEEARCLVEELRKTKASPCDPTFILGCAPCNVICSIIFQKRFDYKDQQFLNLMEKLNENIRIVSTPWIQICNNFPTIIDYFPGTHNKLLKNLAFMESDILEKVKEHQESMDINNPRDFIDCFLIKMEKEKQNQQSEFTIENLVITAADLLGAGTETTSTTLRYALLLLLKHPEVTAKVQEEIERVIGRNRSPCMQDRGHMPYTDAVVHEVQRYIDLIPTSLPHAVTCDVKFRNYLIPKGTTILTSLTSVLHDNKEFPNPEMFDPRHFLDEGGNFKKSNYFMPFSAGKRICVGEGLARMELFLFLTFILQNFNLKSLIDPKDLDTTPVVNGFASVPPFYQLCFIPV
As to the kind of experiment: Test Example 6: CYP inhibition test, mephenytoin 4′-hydroxylation (CYP2C19). It counts as in vitro ADME. The conditions noted are these: pooled human hepatic microsome, 50 μmol/L S-mephenytoin. The protocol:
as §1

A short description of data set [9]: Test Example 9: Metabolism stability test. Format: in vitro ADME. Particulars: human liver microsomes 0.5 mg protein/mL, 30 minutes at 37° C., NADPH, compound concentration 0.5 μmol/L. The protocol:
Metabolism Stability Test
Using a commercially available pooled human hepatic microsomes, a compound of the present invention was reacted for a constant time, a remaining rate was calculated by comparing a reacted sample and an unreacted sample, thereby, a degree of metabolism in liver was assessed.
A reaction was performed (oxidative reaction) at 37° C. for 0 minute or 30 minutes in the presence of 1 mmol/L NADPH in 0.2 mL of a buffer (50 mmol/L Tris-HCl pH 7.4, 150 mmol/L potassium chloride, 10 mmol/L magnesium chloride) containing 0.5 mg protein/mL of human liver microsomes. After the reaction, 50 μL of the reaction mixture was added to 100 μL of a methanol/acetonitrile=1/1 (v/v), mixed and centrifuged at 3000 rpm for 15 minutes. The compound of the present invention in the supernatant was quantified by LC/MS/MS, and a remaining amount of the compound of the present invention after the reaction was calculated, letting a compound amount at 0 minute reaction time to be 100%. Hydrolysis reaction was performed in the absence of NADPH and glucuronidation reaction was in the presence of 5 mmol/L UDP-glucuronic acid in place of NADPH, followed by similar operations.
(Results) Compound concentration: 0.5 μmol/L
(Microsomes from liver hold many membrane-bound enzymes, among them those of drug oxidation.)

In data set [10] the target is T1, human TRPV4 (hTRPV4/CHO cells). As to the kind of experiment: Test Example 4: TRPV4 inhibitory activity (Ki value), 4α-PDD stimulation, Fluo-3 calcium fluorescence (FDSS 3000). Format: cell-based. Particulars: Test Example 4, 4α-PDD stimulation, read-out: Test 4 Ki. In short, it runs like this: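 hTRPV4/CHO-K1 cells loaded with 5 μmol/L Fluo-3 in HBSS/HEPES pH 7.5 with probenecid; compound (10 μmol/L to 0.5 nmol/L final, 10 points) added before 4α-PDD, fluorescence read 8 min at Ex 480/Em 540 nm. Max−Min signal normalised to 10 μM Ruthenium Red (100%) and no compound (0%); IC50 converted to Ki using 4α-PDD EC50.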

T1 sequence (Q9HBA0 whole entry): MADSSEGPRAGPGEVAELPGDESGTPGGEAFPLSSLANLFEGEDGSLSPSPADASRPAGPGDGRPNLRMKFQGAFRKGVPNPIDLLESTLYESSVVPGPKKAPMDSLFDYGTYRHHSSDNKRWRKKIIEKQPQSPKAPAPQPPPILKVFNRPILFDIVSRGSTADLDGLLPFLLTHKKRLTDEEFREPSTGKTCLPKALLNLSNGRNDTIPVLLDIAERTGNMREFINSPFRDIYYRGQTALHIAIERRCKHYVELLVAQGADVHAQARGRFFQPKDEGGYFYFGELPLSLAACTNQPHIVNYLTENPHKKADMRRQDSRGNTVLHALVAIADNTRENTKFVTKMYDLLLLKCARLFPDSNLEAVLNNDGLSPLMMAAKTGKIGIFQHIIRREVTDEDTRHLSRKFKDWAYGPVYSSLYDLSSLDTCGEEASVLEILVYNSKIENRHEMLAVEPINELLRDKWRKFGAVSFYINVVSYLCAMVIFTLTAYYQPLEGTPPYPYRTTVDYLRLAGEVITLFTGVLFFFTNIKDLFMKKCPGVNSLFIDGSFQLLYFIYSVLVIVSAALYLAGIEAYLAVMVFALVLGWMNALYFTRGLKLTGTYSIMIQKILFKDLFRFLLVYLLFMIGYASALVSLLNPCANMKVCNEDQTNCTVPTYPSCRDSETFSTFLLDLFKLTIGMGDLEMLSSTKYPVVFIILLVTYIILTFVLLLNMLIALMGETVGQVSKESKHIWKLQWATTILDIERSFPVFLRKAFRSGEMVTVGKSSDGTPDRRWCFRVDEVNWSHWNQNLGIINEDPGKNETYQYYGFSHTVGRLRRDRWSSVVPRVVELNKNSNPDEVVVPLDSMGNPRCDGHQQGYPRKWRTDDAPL
T4 sequence (P10635 whole entry): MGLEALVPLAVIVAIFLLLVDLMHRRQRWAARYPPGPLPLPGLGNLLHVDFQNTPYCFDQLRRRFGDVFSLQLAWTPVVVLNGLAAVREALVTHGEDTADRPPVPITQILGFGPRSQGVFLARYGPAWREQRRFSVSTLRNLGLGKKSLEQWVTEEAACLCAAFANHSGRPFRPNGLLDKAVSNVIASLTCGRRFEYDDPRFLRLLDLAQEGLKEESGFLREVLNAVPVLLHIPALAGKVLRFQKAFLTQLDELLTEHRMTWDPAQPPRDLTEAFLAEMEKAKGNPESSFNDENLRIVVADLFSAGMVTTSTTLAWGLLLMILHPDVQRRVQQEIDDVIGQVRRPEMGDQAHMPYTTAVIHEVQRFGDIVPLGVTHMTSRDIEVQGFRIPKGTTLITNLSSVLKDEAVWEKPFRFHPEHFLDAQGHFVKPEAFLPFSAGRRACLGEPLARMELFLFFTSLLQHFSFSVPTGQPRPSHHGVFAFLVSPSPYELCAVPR

With `Cc1nc(CN(C)C)sc1-c1csc(NC(=O)Cc2c(F)cccc2F)n1` [Compound I-81], in data set [1], the solubility at 16 h is more than 50 µM. The IC50 in data set [2] was 1 to 8 µM.

For the molecule `Cc1nc(C(=O)NO)sc1-c1csc(NC(=O)Cc2c(F)cccc2F)n1` [Compound I-107], in [3], the “CYP3A4 fluorescent MBI test: difference between IC50 values without and with preincubation” value is on record as “(−) (when the difference is 3 μM or less, this was defined as (−))”. Also, the IC50 in data set [4] is more than 20 µM; in data set [2] it was 0.1 to 1 µM; in data set [5] it was more than 20 µM; in data set [6], more than 20 µM; in data set [7], more than 20 µM; in data set [8], more than 20 µM.

For `Cc1nc(CO)sc1-c1csc(NC(=O)C2CCC(F)(F)C2)n1` (stereo not drawn) [Compound I-95], the half-inhibitory concentration (IC50) is more than 20 µM in data set [4]; 0.1 to 1 µM in data set [2]; more than 20 µM in data set [5]; more than 20 µM in [6]; more than 20 µM in [7]; more than 20 µM in data set [8]. For the same molecule, the “Metabolism stability: remaining amount of the compound after the reaction” value in [9] was 99.4%.

As to `Cc1nc(C)c(-c2csc(NS(=O)(=O)Cc3ccccc3)n2)s1` [II-1], the inhibition constant (Ki) in data set [10] was in the range of 1 to 3 µM. In data set [1], the solubility at 16 h is more than 50 µM.
